Holding throughout (type): physicochemical
Data set [1] is described as follows: Thermal decomposition / stability of gacyclidine in solution. The following applies: for decomposition rate: 54° C.; for Time for 10% Loss: Ringer's Lactate.
A short description of data set [2]: Water solubility of gacyclidine forms. From the text:
(§1) However, in polymeric containers or in the presence of excess precipitated drug, the apparent pKA is perturbed to lower values due to interaction of the basic form of the drug with polymeric surfaces or its own insoluble precipitate. In the conjugate acid form, gacyclidine is extremely water soluble. Solutions of greater than 1 molar (M) concentration can be prepared from the hydrochloride salt. However, solutions of the acid form of the drug are thermally unstable and subject to acid-catalyzed decomposition to give stoichiometric piperidine (1 mole per mole of drug lost) and multiple other organic products.

Data set [3] can be described thus: Binding (loss) of gacyclidine to silicone. The following applies: room temperature, pH 6, 100 μM gacyclidine solution; depends on time and temperature of exposure. From the text:
Delivery of gacyclidine in such a manner presents numerous challenges, however. Various characteristics of gacyclidine are discussed in more detail below. […] Specifically, catheters, drug reservoirs, pumps, anti-bacterial filters and other components of drug delivery systems are typically fabricated from polymers approved for human implantation.

The nature of data set [4]: Apparent pKA of gacyclidine in aqueous solution.
Excerpt: as §1

A value given as a limit tells only on which side of the number the result lay.

`C[C@H]1CCCC[C@@]1(c1cccs1)N1CCCCC1.Cl` [Gacyclidine Hydrochloride Salt, Gacyclidine] yielded a decomposition rate in data set [1] (10 mM HCl) of 0.52 day⁻¹. For the same compound, the “Time for 10% Loss” value in data set [1] (37° C., pH 5.5) is 3.7 ± 0.1 days; in data set [1] (37° C., pH 6.0) it was 3.82 ± 0.03 days; in data set [1] (37° C., pH 7.4), 6.1 ± 0.4 days; in data set [1] (37° C., pH 7.4, listed as gacyclidine in the hydrochloride salt form), 6.1 days. Also, in data set [1] (37° C., slightly acidic conditions), the “time required for 10% loss” value was 3.8 days. The “solubility in water (concentration of clear solution)” value in data set [2] is “greater than 1 M”; in data set [2] (listed as hydrochloride salt of gacyclidine), greater than 1000 mM.

With `CC1CCCCC1(c1cccs1)N1CCCCC1` (centres unmarked) [Gacyclidine], the “gacyclidine retained by silicone” value in data set [3] is “up to 60%”. The “temperature dependence of apparent pKA” value in data set [4] is given as −0.016 ΔpKA/° C. In data set [4] (37° C., 1 mM gacyclidine), the “apparent pKA in glass vials higher than in polypropylene” value was “about 0.7 pH units”. Moreover, in data set [4] (room temperature, glass containers), the “apparent pKA” value amounted to 7.4. In addition, the “apparent pKA (from residual gacyclidine in solution)” value in data set [4] (room temperature, 0.1 M hydrochloride salt diluted into buffered aqueous solution to 1 mM, glass or polypropylene vials) came to 6.7. Besides, the “pH above which precipitation is observed” value in data set [2] (0.1 M hydrochloride salt diluted into buffered aqueous solution to 1 mM) was greater than 7 pH.

`CC1CCCCC1(c1cccs1)N1CCCCC1` (centres unmarked) [basic form of gacyclidine, Gacyclidine] gave a decomposition rate in data set [1] (1 mM NaOH) of 0.0013 day⁻¹. In data set [1] (from decomposition rates at 54° C.), the “stability relative to the conjugate acid form” value was 200-400 times. The solubility in water in data set [2] (above pH 9) was less than 0.002 mM.

The values above are taken from patent US20080145439A1, “NA[…] FORMULATIONS” (NEUROSYSTEC CORPORATION, priority 2006, published 2008).
